{
  "source": "patent US20200138028A1",
  "about": "“MICROBIOCIDAL OXADIAZOLE DERIVATIVES” (SYNGENTA PARTICIPATIONS AG, priority 2016, published 2020)",
  "key": {"[1]": {"test_system": "Puccinia recondita f. sp. tritici", "assay": "Puccinia recondita f. sp. tritici / wheat / leaf disc curative (brown rust)", "assay_type": "in vivo", "settings": "foliar, 200 ppm in the applied formulation, wheat leaf segments cv. Kanzler, applied 1 day after inoculation, 6 to 8 days after application, read-out: disease control compared to untreated control leaf disks", "protocol": "Leaf disks or leaf segments of various plant species are cut from plants grown in a greenhouse. The cut leaf disks or segments are placed in multiwell plates (24-well format) onto water agar. The leaf disks are sprayed with a test solution before (preventative) or after (curative) inoculation. Compounds to be tested are prepared as DMSO solutions (max. 10 mg/ml) which are diluted to the appropriate concentration with 0.025% Tween20 just before spraying. The inoculated leaf disks or segments are incubated under defined conditions (temperature, relative humidity, light, etc.) according to the respective test system. A single evaluation of disease level is carried out 3 to 14 days after inoculation, depending on the pathosystem. Percent disease control relative to the untreated check leaf disks or segments is then calculated.\nWheat leaf segments cv. Kanzler are placed on agar in multiwell plates (24-well format). The leaf segments are then inoculated with a spore suspension of the fungus. Plates were stored in darkness at 19° C. and 75% relative humidity. The formulated test compound diluted in water was applied 1 day after inoculation. The leaf segments were incubated at 19° C. and 75% relative humidity under a light regime of 12 hours light/12 hours darkness in a climate cabinet and the activity of a compound was assessed as percent disease control compared to untreated when an appropriate level of disease damage appears in untreated check leaf segments (6 to 8 days after application).\nThe following compounds at 200 ppm in the applied formulation give at least 80% disease control in this test when compared to untreated control leaf disks under the same conditions, which show extensive disease development."}, "[2]": {"test_system": "Glomerella laqenarium (Colletotrichum laqenarium)", "assay": "Glomerella laqenarium (Colletotrichum laqenarium) liquid culture / cucumber / preventative (anthracnose)", "assay_type": "cell-based", "settings": "20 ppm in the applied formulation, liquid culture in PDB, 24° C., 3 to 4 days after application, read-out: disease control compared to untreated control (inhibition of growth, photometric)", "protocol": "Mycelia fragments or conidia suspensions of a fungus prepared either freshly from liquid cultures of the fungus or from cryogenic storage, are directly mixed into nutrient broth. DMSO solutions of the test compound (max. 10 mg/ml) are diluted with 0.025% Tween20 by a factor of 50 and 10 μl of this solution is pipetted into a microtiter plate (96-well format). The nutrient broth containing the fungal spores/mycelia fragments is then added to give an end concentration of the tested compound. The test plates are incubated in the dark at 24° C. and 96% relative humidity. The inhibition of fungal growth is determined photometrically after 2 to 7 days, depending on the pathosystem, and percent antifungal activity relative to the untreated check is calculated.\nConidia of the fungus from cryogenic storage are directly mixed into nutrient broth (PDB—potato dextrose broth). After placing a (DMSO) solution of test compound into a microtiter plate (96-well format), the nutrient broth containing the fungal spores is added. The test plates are incubated at 24° C. and the inhibition of growth is measured photometrically 3 to 4 days after application.\nThe following compounds at 20 ppm in the applied formulation give at least 80% disease control in this test when compared to untreated control under the same conditions, which show extensive disease development."}},
  "data": [
    {"smiles": "Cc1cc(-c2noc(C(F)(F)F)n2)ccc1NC(=O)C1CC1", "note": "[Compound 1.1, N-[2-methyl-4-[5-(trifluoromethyl)-1,2,4-oxadiazol-3-yl]phenyl]cyclopropane carboxamide]", "values": [
      {"measurement": "melting point", "value": "185 to 196", "unit": "°C"}
    ]},
    {"smiles": "Cc1cc(-c2noc(C(F)(F)F)n2)ccc1NC(=O)c1ccccc1", "note": "[Compound 1.2, N-[2-methyl-4-[5-(trifluoromethyl)-1,2,4-oxadiazol-3-yl]phenyl]benzamide]", "values": [
      {"measurement": "melting point", "value": "173 to 176", "unit": "°C"}
    ]},
    {"smiles": "O=C(Nc1ccc(-c2noc(C(F)(F)F)n2)cc1F)C1CC1", "note": "[Compound 1.3, N-[2-fluoro-4-[5-(trifluoromethyl)-1,2,4-oxadiazol-3-yl]phenyl]cyclopropane carboxamide]", "values": [
      {"measurement": "melting point", "value": "160 to 162", "unit": "°C"},
      {"measurement": "pest or weed control at 200 ppm", "setting": "[1]", "value": "≥ 80", "unit": "%"},
      {"measurement": "inhibition at 20 ppm", "setting": "[2]", "value": "≥ 80", "unit": "%"}
    ]},
    {"smiles": "O=C(Nc1ccc(-c2noc(C(F)(F)F)n2)cc1F)c1ccccc1", "note": "[Compound 1.4, N-[2-fluoro-4-[5-(trifluoromethyl)-1,2,4-oxadiazol-3-yl]phenyl]benzamide]", "values": [
      {"measurement": "melting point", "value": "166 to 175", "unit": "°C"}
    ]},
    {"smiles": "O=C(Nc1ccc(-c2noc(C(F)(F)F)n2)cc1F)C1CC1(F)F", "note": "(stereo not drawn) [Compound 1.5, 2,2-difluoro-N-[2-fluoro-4-[5-(trifluoromethyl)-1,2,4-oxadiazol-3-yl]phenyl]cyclopropane carboxamide]", "values": [
      {"measurement": "pest or weed control at 200 ppm", "setting": "[1]", "value": "≥ 80", "unit": "%"},
      {"measurement": "inhibition at 20 ppm", "setting": "[2]", "value": "≥ 80", "unit": "%"}
    ]},
    {"smiles": "O=C(Nc1ccc(-c2noc(C(F)(F)F)n2)cc1F)C1CCOC1", "note": "(stereo not drawn) [Compound 1.7, N-[2-fluoro-4-[5-(trifluoromethyl)-1,2,4-oxadiazol-3-yl]phenyl]tetrahydrofuran-3-carboxamide]", "values": [
      {"measurement": "pest or weed control at 200 ppm", "setting": "[1]", "value": "≥ 80", "unit": "%"},
      {"measurement": "inhibition at 20 ppm", "setting": "[2]", "value": "≥ 80", "unit": "%"}
    ]},
    {"smiles": "O=C(Nc1ccc(-c2noc(C(F)(F)F)n2)cc1F)C1CCC1", "note": "[Compound 1.8, N-[2-fluoro-4-[5-(trifluoromethyl)-1,2,4-oxadiazol-3-yl]phenyl] cyclobutanecarboxamide]", "values": [
      {"measurement": "inhibition at 20 ppm", "setting": "[2]", "value": "≥ 80", "unit": "%"}
    ]},
    {"smiles": "CC1CC1C(=O)Nc1ccc(-c2noc(C(F)(F)F)n2)cc1F", "note": "(stereo not drawn) [Compound 1.9, N-[2-fluoro-4-[5-(trifluoromethyl)-1,2,4-oxadiazol-3-yl]phenyl]-2-methyl-cyclopropanecarboxamide]", "values": [
      {"measurement": "inhibition at 20 ppm", "setting": "[2]", "value": "≥ 80", "unit": "%"}
    ]},
    {"smiles": "CC1(C(=O)Nc2ccc(-c3noc(C(F)(F)F)n3)cc2F)CC1", "note": "[Compound 1.10, N-[2-fluoro-4-[5-(trifluoromethyl)-1,2,4-oxadiazol-3-yl]phenyl]-1-methyl-cyclopropanecarboxamide]", "values": [
      {"measurement": "pest or weed control at 200 ppm", "setting": "[1]", "value": "≥ 80", "unit": "%"},
      {"measurement": "inhibition at 20 ppm", "setting": "[2]", "value": "≥ 80", "unit": "%"}
    ]},
    {"smiles": "O=C(Nc1ccc(-c2noc(C(F)(F)F)n2)cc1F)C1CCCO1", "note": "(stereo not drawn) [Compound 1.11, N-[2-fluoro-4-[5-(trifluoromethyl)-1,2,4-oxadiazol-3-yl]phenyl]tetrahydrofuran-2-carboxamide]", "values": [
      {"measurement": "inhibition at 20 ppm", "setting": "[2]", "value": "≥ 80", "unit": "%"}
    ]},
    {"smiles": "N#CC1(C(=O)Nc2ccc(-c3noc(C(F)(F)F)n3)cc2F)CC1", "note": "[Compound 1.12, 1-cyano-N-[2-fluoro-4-[5-(trifluoromethyl)-1,2,4-oxadiazol-3-yl]phenyl]cyclopropane carboxamide]", "values": [
      {"measurement": "pest or weed control at 200 ppm", "setting": "[1]", "value": "≥ 80", "unit": "%"},
      {"measurement": "inhibition at 20 ppm", "setting": "[2]", "value": "≥ 80", "unit": "%"}
    ]},
    {"smiles": "O=C(CC1CC1)Nc1ccc(-c2noc(C(F)(F)F)n2)cc1F", "note": "[Compound 1.13, 2-cyclopropyl-N-[2-fluoro-4-[5-(trifluoromethyl)-1,2,4-oxadiazol-3-yl]phenyl]acetamide]", "values": [
      {"measurement": "pest or weed control at 200 ppm", "setting": "[1]", "value": "≥ 80", "unit": "%"},
      {"measurement": "inhibition at 20 ppm", "setting": "[2]", "value": "≥ 80", "unit": "%"}
    ]},
    {"smiles": "Cc1cc(-c2noc(C(F)(F)F)n2)ccc1NC(=O)C1CCOC1", "note": "(stereo not drawn) [Compound 1.16, N-[2-methyl-4-[5-(trifluoromethyl)-1,2,4-oxadiazol-3-yl]phenyl]tetrahydrofuran-3-carboxamide]", "values": [
      {"measurement": "inhibition at 20 ppm", "setting": "[2]", "value": "≥ 80", "unit": "%"}
    ]},
    {"smiles": "Cc1cc(-c2noc(C(F)(F)F)n2)ccc1NC(=O)C1(C)CC1", "note": "[Compound 1.19, 1-methyl-N-[2-methyl-4-[5-(trifluoromethyl)-1,2,4-oxadiazol-3-yl]phenyl]cyclopropane carboxamide]", "values": [
      {"measurement": "pest or weed control at 200 ppm", "setting": "[1]", "value": "≥ 80", "unit": "%"},
      {"measurement": "inhibition at 20 ppm", "setting": "[2]", "value": "≥ 80", "unit": "%"}
    ]},
    {"smiles": "Cc1cc(-c2noc(C(F)(F)F)n2)ccc1NC(=O)C1CCCO1", "note": "(stereo not drawn) [Compound 1.20, N-[2-methyl-4-[5-(trifluoromethyl)-1,2,4-oxadiazol-3-yl]phenyl]tetrahydrofuran-2-carboxamide]", "values": [
      {"measurement": "pest or weed control at 200 ppm", "setting": "[1]", "value": "≥ 80", "unit": "%"},
      {"measurement": "inhibition at 20 ppm", "setting": "[2]", "value": "≥ 80", "unit": "%"}
    ]}
  ]
}
